ChEMBL document CHEMBL5113380, “Functionalized quinoxalinones as privileged structures with broad-ranging pharmacological activities” (Eur J Med Chem, 2022)

Biological target: Human immunodeficiency virus type 1 reverse transcriptase (Human immunodeficiency virus 1, UniProt Q72547)
Assay: Inhibition of HIV1 reverse transcriptase
Work on `COC(=O)c1sc(I)cc1S(=O)(=O)N1c2cc(Cl)ccc2NC(=O)C1C` (stereo unspecified) yielded an IC50 of 0.075 µM.

Biological target: T1, Glutamate receptor ionotropic AMPA (Homo sapiens, UniProt P42261+P42262+P42263+P48058)
Assay: Displacement of [3H]kainic acid from AMPA receptor (unknown origin)
Format: protein-complex assay
Work on `N[C@@H](Cc1ccc2[nH]c(=O)c(=O)[nH]c2c1)C(=O)O` yielded an IC50 of over 300 µM.
`Nc1cc(Cl)cc2[nH]c(=O)c3nc(C(=O)O)nn3c12` gave an IC50 of 34.1 µM.
With `O=C(O)c1nc2c(=O)[nH]c3cc(Cl)cc(-n4cnnc4)c3n2n1` the IC50 was 37 µM.

Biological target: Glutamate [NMDA] receptor
Assay: Displacement of [3H]DCKA from NMDA receptor (unknown origin)
Format: protein-complex assay, Homo sapiens
For `CC[C@H]1Cc2cc(Br)cc3[nH]c(=O)c(=O)n(c23)C1CC(=O)O` (stereo partly specified), the Ki was 0.0014 µM.
Work on `O=C(O)C[C@H]1CCc2cc(Br)cc3[nH]c(=O)c(=O)n1c23` yielded a Ki of 0.0096 µM.
Work on `C[C@H]1Cc2cc(Br)cc3[nH]c(=O)c(=O)n(c23)C1CC(=O)O` (stereo partly specified) yielded a Ki of 0.0033 µM.
`C[C@H]1Cc2cc(Br)cc3[nH]c(=O)c(=O)n(c23)C1CC(=O)Nc1ccccc1` (stereo partly specified) showed a Ki of 0.003 µM.
`C[C@H]1Cc2cc(Cl)cc3[nH]c(=O)c(=O)n(c23)C1CC(=O)Nc1ccccc1` (stereo partly specified) gave a Ki of 0.0031 µM.
Compound `C[C@H]1Cc2cc(Cl)cc3[nH]c(=O)c(=O)n(c23)C1CC(=O)O` (stereo partly specified) has a Ki of 0.0044 µM.
`O=C(O)C[C@@H]1CCc2cc(Br)cc3[nH]c(=O)c(=O)n1c23` gave a Ki of 0.0023 µM.
For `O=C(C[C@@H]1CCc2cc(Br)cc3[nH]c(=O)c(=O)n1c23)Nc1ccccc1`, the Ki was 0.00096 µM.

Biological target: Glutamate [NMDA] receptor
Assay: Binding affinity to NMDA receptor (unknown origin)
Format: protein-complex assay, Homo sapiens
`O=C(O)c1ccc(-c2ccc3[nH]c(=O)c(=O)[nH]c3c2)cc1` showed a Ki of over 100 µM.
Compound `O=c1[nH]c2ccc(CCP(=O)(O)O)cc2[nH]c1=O` has a Ki of 56 µM.
`O=C(O)c1cc(-c2ccc3[nH]c(=O)c(=O)[nH]c3c2)ccc1Cl` showed a Ki of over 100 µM.

Biological target: Glutamate receptor ionotropic, kainate 2 (Homo sapiens, UniProt Q13002)
Sequence (Q13002 whole entry): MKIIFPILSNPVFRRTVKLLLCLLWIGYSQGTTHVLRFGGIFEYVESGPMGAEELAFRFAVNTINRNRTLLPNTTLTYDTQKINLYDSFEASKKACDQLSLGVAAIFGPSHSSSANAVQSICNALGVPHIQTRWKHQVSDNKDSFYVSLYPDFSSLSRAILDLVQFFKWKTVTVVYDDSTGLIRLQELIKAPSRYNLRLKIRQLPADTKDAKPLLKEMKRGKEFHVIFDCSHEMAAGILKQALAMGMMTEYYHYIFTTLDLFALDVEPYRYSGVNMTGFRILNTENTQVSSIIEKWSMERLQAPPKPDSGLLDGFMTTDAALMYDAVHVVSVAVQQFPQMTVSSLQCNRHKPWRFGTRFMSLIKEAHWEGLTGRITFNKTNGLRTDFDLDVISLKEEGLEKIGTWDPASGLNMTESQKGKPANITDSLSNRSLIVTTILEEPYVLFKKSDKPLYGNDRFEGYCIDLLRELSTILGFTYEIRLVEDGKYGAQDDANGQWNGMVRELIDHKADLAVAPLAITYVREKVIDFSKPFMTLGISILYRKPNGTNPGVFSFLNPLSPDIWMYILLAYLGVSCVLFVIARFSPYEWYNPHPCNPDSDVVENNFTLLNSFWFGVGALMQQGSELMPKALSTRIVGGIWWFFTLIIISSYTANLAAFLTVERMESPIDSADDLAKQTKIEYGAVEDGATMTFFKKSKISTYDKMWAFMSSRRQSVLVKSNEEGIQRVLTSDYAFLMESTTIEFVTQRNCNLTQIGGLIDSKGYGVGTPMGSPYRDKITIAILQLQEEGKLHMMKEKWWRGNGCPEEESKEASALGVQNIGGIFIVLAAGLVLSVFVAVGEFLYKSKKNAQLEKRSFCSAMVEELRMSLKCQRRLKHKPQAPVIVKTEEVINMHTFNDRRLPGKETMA
Assay: Binding affinity to GluK2 receptor (unknown origin)
For `O=C(O)c1ccc(-c2ccc3[nH]c(=O)c(=O)[nH]c3c2)cc1`, the Ki was 48 µM.
In the case of `O=c1[nH]c2ccc(CCP(=O)(O)O)cc2[nH]c1=O`, the Ki is reported as over 100 µM.
`N[C@@H](Cc1ccc2[nH]c(=O)c(=O)[nH]c2c1)C(=O)O` gave a Ki of 136 µM.
`O=C(O)c1cc(-c2ccc3[nH]c(=O)c(=O)[nH]c3c2)ccc1Cl` showed a Ki of 33 µM.

Biological target: Glutamate receptor ionotropic, kainate 1 (Homo sapiens, UniProt P39086)
Sequence (P39086 whole entry): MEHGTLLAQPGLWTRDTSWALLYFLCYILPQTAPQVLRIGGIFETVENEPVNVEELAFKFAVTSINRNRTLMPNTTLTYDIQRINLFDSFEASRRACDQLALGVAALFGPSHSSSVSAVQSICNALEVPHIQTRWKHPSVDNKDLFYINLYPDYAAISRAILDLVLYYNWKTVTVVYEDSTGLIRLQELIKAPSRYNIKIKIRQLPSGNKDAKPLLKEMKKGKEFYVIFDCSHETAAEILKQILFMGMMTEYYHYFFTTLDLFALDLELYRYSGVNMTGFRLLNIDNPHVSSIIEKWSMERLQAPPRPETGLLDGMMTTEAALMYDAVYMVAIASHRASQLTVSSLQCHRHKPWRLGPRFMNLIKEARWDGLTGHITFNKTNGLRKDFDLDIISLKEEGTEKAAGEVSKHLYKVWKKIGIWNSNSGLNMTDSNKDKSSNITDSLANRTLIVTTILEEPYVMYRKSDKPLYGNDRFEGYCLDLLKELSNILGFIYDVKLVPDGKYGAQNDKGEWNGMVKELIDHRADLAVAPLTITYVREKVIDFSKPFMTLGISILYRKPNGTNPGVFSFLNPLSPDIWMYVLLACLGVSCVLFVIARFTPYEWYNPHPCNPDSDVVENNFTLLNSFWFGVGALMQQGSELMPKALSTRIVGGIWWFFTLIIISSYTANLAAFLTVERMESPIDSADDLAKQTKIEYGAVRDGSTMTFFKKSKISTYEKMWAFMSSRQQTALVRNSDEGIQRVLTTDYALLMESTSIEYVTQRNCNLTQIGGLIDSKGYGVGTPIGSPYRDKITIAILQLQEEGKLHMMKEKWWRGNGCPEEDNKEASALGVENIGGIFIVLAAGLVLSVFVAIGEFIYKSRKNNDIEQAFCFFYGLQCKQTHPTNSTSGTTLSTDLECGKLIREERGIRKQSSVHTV
Assay: Binding affinity to GluK1 receptor (unknown origin)
Compound `O=c1[nH]c2ccc(CCP(=O)(O)O)cc2[nH]c1=O` has a Ki of over 100 µM.
`N[C@@H](Cc1ccc2[nH]c(=O)c(=O)[nH]c2c1)C(=O)O` showed a Ki of over 100 µM.
Work on `O=C(O)c1cc(-c2ccc3[nH]c(=O)c(=O)[nH]c3c2)ccc1Cl` yielded a Ki of 1.2 µM.

Biological target: Glutamate receptor 2 (Homo sapiens, UniProt P42262)
Sequence (P42262 whole entry): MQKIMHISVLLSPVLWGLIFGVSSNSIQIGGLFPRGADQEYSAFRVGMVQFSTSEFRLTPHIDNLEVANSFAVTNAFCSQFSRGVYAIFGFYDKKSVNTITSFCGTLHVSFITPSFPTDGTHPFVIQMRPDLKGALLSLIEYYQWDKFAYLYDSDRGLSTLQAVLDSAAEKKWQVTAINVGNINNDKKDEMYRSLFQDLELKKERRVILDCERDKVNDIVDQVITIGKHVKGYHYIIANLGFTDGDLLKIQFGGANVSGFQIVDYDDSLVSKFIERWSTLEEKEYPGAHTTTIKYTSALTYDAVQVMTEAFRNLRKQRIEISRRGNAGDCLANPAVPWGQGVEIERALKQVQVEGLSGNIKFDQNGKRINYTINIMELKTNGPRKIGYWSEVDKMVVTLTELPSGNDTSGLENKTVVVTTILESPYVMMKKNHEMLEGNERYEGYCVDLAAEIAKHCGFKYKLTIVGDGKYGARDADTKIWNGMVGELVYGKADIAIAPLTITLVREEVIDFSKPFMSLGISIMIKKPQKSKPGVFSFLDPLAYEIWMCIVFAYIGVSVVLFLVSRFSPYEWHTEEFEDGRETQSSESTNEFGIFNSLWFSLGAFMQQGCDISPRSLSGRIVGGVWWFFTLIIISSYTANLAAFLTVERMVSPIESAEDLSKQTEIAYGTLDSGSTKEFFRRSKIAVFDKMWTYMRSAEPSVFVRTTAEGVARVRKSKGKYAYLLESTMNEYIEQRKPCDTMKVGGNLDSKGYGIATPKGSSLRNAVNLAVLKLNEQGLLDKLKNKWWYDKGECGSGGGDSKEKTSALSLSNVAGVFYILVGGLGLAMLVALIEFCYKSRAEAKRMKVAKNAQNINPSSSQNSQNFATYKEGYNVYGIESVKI
Assay: Binding affinity to GluA2 receptor (unknown origin)
`O=C(O)c1ccc(-c2ccc3[nH]c(=O)c(=O)[nH]c3c2)cc1` gave a Ki of over 100 µM.
Work on `N[C@@H](Cc1ccc2[nH]c(=O)c(=O)[nH]c2c1)C(=O)O` yielded a Ki of over 100 µM.
`O=C(O)c1cc(-c2ccc3[nH]c(=O)c(=O)[nH]c3c2)ccc1Cl` gave a Ki of over 100 µM.

Biological target: T1, Glutamate receptor ionotropic AMPA
Assay: Binding affinity to AMPA receptor (unknown origin)
Format: protein-complex assay
With `O=C(O)c1ccc(-c2ccc3[nH]c(=O)c(=O)[nH]c3c2)cc1` the IC50 was over 100 µM.
Compound `O=c1[nH]c2ccc(CCP(=O)(O)O)cc2[nH]c1=O` has an IC50 of over 100 µM.
For `O=C(O)c1cc(-c2ccc3[nH]c(=O)c(=O)[nH]c3c2)ccc1Cl`, the IC50 was 24 µM.

Biological target: not listed separately
Assay: Displacement of [3H]glycine from AMPA receptor (unknown origin)
Format: protein-complex assay, Homo sapiens
`Nc1cc(Cl)cc2[nH]c(=O)c3nc(C(=O)O)nn3c12` showed a Ki of 0.16 µM.
In the case of `O=C(O)c1nc2c(=O)[nH]c3cc(Cl)cc(-n4cnnc4)c3n2n1`, the Ki is reported as 2.3 µM.

Biological target: T1, Glutamate receptor ionotropic AMPA
Assay: Displacement of [3H]AMPA from AMPA receptor (unknown origin)
Format: protein-complex assay
With `N[C@@H](Cc1ccc2[nH]c(=O)c(=O)[nH]c2c1)C(=O)O` the IC50 was 203 µM.
Compound `Nc1cc(Cl)cc2[nH]c(=O)c3nc(C(=O)O)nn3c12` has a Ki of 3.2 µM.
Compound `O=C(O)c1nc2c(=O)[nH]c3cc(Cl)cc(-n4cnnc4)c3n2n1` has a Ki of 0.4 µM.

Biological target: not listed separately
Assay: Binding affinity to KA receptor (unknown origin)
Set-up: species or system Homo sapiens
With `O=C(O)c1ccc(-c2ccc3[nH]c(=O)c(=O)[nH]c3c2)cc1` the IC50 was over 100 µM.
In the case of `O=c1[nH]c2ccc(CCP(=O)(O)O)cc2[nH]c1=O`, the IC50 is reported as over 100 µM.
`O=C(O)c1cc(-c2ccc3[nH]c(=O)c(=O)[nH]c3c2)ccc1Cl` gave an IC50 of 57 µM.
